Marks after values point to notes of the source that are not given here.
Tests used:
[1] = chicks, 21 days, 40 mg zinc per day per kg feed
Method: (§1) A group of one day old chicks were administered 40 mg zinc per day per kg feed for 21 consecutive days. […] At the end of 21 days, all chicks in all groups were killed, freeze dried, and a whole body assay for zinc performed.

[2] = chicks, 21 Day, 40 mg zinc per day per kg feed
Method: as §1

[3] = Tied-off ileum section dosed with 65Zn solution; 65Zn in liver, heart and spleen by liquid scintillation; assay type: in vivo; details: non-fasted rats, 1×10^−4M solution in tied off ileum section, 2 hours post dosing
Method: Non-fasted rats were first anesthetized and then their intestines exposed. A 10 cm section of the ileum was tied off at both ends extending 15 cm to 5 cm proximal to the ileoceal valve. At each end, a 0.5 cm incision was made allowing the tied off section to be thoroughly washed with Ringers solution via the incisions. A solution containing ^65ZnCl2 or ^65Zn Histidine (1×10^−4M) was introduced into the tied off section. At 2 hours post dosing, the rats were killed by cervical dislocation. Their livers, hearts, and spleens were taken, weighed, dissected, and assayed by liquid scintillation for ^65Zn.

[4] = Isotope study: deposition of 65zinc into male sex organ tissues after single intravenous dose; assay type: in vivo; details: zinc sufficient adult male rats, single I.V. dose 0.06 mg zinc, 24 hours post-dosing
Method: In an isotope study, three groups of zinc sufficient adult male rats (6/group) received a single intravenous (I.V.) dose of 0.06 mg zinc containing 10 microcurines of zinc chelated to either arginine or glycine or as zinc chloride (ZnCl2). The arginine contained about twice as much nitrogen bonded to the zinc atom as did glycine. The ZnCl2 had no nitrogen bonded to the zinc. Twenty four hours post-dosing, all animals were sacrificed and their testes, epididymis, and seminal vesicles were assayed for zinc. The male sex organs were targeted for these zinc assays because of the dominant role zinc plays in their proper functioning. In theory, the uptake of zinc from the three sources into the tissues should have been equivalent since all three sources were administered by I.V. and none of the animals was zinc deficient.
As noted above, arginine has about twice as much nitrogen in the ligand as glycine.

[5] = Iron source fed to gestating sows; piglet blood hemoglobin, hematocrit and serum ferritin at farrowing; assay type: in vivo, sows / piglets; details: sows fed iron source daily from 4 weeks before farrowing
Source text: Ferrous iron was chelated to various high nitrogen-containing amino acid chelates. Six grams of such a chelate formula (0.6 g Fe) was fed daily to gestating sows beginning 4 weeks before expected farrowing. Another group of gestating sows received 2 g daily of ferrous fumarate (0.67 g Fe) for the same period. One week prior to farrowing, the dosages of iron were doubled for each group.
At farrowing blood samples were taken from each piglet and assayed for hemoglobin, hematocrit, and serum ferritin. The hemoglobin and hematocrit represent current iron status but serum ferritin represents iron storage for future use.

## zinc bisarginate (2:1) [Zn Bisarginate (2:1)]
[1]
  zinc retention in the body (in words): increased over zinc bisglycinate (2:1) significantly
[2]
  Body Weight: 829.15 g
  Gain/Feed: .078 g

## NCC(=O)[O-].NCC(=O)[O-].[Zn+2] [Zn Bisglycinate (2:1), zinc bisglycinate (2:1)]
[1]
  zinc retention in the body (in words): increased to some degree
[2]
  Body Weight: 812.55 g
  Gain/Feed: .078 g

## zinc glycinate (1:1) [Zn Glycinate (1:1)]
[1]
  zinc retention in the body (in words): similar
[2]
  Body Weight: 817.08 g
  Gain/Feed: 0.77 g

## [Cl-].[Cl-].[Zn+2] [^65Zn Chloride, zinc chloride]
[3]; heart
  ^65Zn in tissue: Heart: 1.00 ± 0.33 number × 10^−10 Zn/gm
[3]; liver
  ^65Zn in tissue: Liver: 8.67 ± 5.67 number × 10^−10 Zn/gm
[3]; spleen
  ^65Zn in tissue: Spleen: 3.50 ± 0.25 number × 10^−10 Zn/gm
[4]; epididymis
  Deposition of ^65zinc into tissue: Epididymis: Negligible
[4]; seminal vesicle
  Deposition of ^65zinc into tissue: Seminal Vesicle: Negligible
[4]; testes
  Deposition of ^65zinc into tissue: Testes: Negligible

## O=C([O-])/C=C/C(=O)[O-].[Fe+2] [Ferrous Fumarate, ferrous fumarate]
[5]; a/b P < 0.01
  Serum Ferritin: 20.1^b ng/ml
[5]; doubled in the last week
  Hematocrit: 33.2%
  Hemoglobin: 9.7 g/dL

## O=[N+]([O-])[O-].O=[N+]([O-])[O-].[Zn+2] [Zn Nitrate, zinc nitrate]
[1]
  zinc retention in the body (in words): similar
[2]
  Body Weight: 734.98 g
  Gain/Feed: 0.74 g

From patent US20080194679A1, “Compositions and methods for increasing metabolic activity in animal tissue” (priority 2007, published 2008)
